Tests used:
human TRPV3 (hTRPV3) = target: T1, human TRPV3 (hTRPV3) (Homo sapiens, UniProt Q8NET8); assay: whole-cell patch clamp and inside-out single-channel recording in transfected HEK293T cells (2-APB-evoked currents); format: cell-based
T1 sequence (Q8NET8 1-790): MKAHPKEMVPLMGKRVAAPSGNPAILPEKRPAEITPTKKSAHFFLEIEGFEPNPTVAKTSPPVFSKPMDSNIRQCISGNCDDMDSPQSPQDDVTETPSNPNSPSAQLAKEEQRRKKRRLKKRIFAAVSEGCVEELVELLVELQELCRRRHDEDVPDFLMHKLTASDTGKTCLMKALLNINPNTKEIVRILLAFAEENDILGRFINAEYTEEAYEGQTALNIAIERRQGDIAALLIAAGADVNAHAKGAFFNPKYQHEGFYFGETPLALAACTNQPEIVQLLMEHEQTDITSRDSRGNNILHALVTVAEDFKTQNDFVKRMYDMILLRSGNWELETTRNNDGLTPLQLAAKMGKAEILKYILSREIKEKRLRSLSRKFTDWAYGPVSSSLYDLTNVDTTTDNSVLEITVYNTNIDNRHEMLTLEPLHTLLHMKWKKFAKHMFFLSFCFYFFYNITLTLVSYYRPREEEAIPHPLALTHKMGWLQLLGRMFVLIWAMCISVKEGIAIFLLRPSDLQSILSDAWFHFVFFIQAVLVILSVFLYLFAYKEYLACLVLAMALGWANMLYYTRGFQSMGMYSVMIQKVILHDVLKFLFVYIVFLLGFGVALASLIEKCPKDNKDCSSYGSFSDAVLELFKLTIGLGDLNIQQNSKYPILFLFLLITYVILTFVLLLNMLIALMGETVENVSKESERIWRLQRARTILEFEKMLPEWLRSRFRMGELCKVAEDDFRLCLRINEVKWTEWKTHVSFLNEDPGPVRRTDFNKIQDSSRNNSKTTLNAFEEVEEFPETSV

TRPM8 (hTRPM8) = TRPM8 (hTRPM8) (Homo sapiens, UniProt Q7Z2W7); assay: whole-cell patch clamp in transfected HEK293T cells (menthol-evoked currents); format: cell-based
TRPM8 (hTRPM8), sequence (Q7Z2W7 whole entry): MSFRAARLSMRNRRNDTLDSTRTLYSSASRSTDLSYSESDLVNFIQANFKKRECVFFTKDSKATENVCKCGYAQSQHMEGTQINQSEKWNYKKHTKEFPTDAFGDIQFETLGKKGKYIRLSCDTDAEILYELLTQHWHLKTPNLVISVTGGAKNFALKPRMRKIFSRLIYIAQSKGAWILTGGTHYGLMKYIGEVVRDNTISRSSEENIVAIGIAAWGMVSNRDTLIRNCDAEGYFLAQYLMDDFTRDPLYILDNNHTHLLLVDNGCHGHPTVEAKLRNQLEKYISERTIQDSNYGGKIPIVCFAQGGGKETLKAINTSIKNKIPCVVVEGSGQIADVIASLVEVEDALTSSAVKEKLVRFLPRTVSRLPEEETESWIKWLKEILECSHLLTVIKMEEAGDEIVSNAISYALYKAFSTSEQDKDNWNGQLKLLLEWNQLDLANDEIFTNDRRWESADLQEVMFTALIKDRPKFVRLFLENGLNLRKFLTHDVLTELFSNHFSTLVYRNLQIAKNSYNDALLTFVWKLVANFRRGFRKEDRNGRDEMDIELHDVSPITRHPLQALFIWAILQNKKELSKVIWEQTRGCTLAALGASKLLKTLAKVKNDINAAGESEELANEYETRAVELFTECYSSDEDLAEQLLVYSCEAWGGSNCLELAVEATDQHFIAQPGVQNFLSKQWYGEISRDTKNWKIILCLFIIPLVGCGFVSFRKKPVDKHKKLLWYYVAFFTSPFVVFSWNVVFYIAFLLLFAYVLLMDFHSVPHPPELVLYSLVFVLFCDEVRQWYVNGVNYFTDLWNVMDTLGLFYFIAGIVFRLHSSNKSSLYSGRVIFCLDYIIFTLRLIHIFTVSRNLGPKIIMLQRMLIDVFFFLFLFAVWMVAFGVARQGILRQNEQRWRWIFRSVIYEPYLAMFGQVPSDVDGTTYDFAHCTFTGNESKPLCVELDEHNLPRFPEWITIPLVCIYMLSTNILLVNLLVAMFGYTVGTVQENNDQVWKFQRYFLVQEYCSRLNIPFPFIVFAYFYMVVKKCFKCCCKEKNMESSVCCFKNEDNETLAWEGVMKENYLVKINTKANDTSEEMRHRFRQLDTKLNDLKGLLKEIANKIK

`CNCCC(Oc1ccc(C(F)(F)F)cc1)c1ccccc1` (centres unmarked) [FLX, Fluoxetine] gave an IC50 (human TRPV3 (hTRPV3)) of 10.2 ± 2.34 µM and an IC50 (TRPM8 (hTRPM8)) of 20 ± 3.3 µM.

From paper PMC12025681, “Repositioning Fluoxetine as a TRPV3 Channel Inhibitor to Alleviate Skin Inflammation and Pruritus” (Current Issues in Molecular Biology, 2025)
